Test results reported in ChEMBL document CHEMBL1153920, “4,4-Difluorinated analogues of l-arginine and N(G)-hydroxy-l-arginine as mechanistic probes for nitric oxide synthase” (Bioorg Med Chem Lett, 2009).

Legend:
[1] = target: T1, Nitric oxide synthase, inducible (Homo sapiens, UniProt P35228); test: Binding affinity to iNOS with heme domain construct assessed as spectral binding constant by spectral assay
[2] = target: T1, Nitric oxide synthase, inducible; test: Activity of iNOS assessed as increase in Kcat by indirect spectral assay relative to N'G-hydroxy-L-arginine

T1 sequence (P35228 whole entry, the tested form may be a part): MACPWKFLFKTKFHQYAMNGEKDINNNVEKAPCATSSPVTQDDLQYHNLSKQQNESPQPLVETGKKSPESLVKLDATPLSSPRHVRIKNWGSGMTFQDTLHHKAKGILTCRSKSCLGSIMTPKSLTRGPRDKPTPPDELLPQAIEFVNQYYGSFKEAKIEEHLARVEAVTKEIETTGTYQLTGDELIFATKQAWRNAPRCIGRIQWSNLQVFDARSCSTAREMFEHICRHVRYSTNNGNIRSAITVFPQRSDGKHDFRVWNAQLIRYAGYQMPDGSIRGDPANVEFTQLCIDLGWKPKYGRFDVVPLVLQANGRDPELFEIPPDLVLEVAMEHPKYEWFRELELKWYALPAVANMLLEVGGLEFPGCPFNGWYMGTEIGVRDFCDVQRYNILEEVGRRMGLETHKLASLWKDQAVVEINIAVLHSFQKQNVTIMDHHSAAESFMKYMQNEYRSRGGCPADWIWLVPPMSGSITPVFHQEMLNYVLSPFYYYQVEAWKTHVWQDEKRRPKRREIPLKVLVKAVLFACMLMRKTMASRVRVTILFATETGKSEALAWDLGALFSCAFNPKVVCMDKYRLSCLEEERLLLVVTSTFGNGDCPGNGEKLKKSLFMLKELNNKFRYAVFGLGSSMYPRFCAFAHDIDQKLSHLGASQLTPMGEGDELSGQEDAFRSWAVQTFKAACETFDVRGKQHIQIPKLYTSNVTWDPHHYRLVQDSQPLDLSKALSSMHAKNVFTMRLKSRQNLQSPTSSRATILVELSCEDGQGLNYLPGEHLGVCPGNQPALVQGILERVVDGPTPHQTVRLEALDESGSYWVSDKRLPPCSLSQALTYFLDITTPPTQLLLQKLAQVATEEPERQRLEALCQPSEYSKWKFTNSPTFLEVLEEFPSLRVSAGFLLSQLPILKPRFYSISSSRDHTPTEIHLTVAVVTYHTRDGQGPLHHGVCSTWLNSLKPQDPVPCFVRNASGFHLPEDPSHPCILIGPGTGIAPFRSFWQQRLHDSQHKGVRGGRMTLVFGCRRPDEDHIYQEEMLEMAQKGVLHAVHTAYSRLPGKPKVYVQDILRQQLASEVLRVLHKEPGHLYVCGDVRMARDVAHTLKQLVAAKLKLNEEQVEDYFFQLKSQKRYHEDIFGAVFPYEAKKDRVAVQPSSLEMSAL

Kd [1] [µM] | Activity [2] [%] | Structure (SMILES)
5.1 |  | N=C(NO)NCCC[C@H](N)C(=O)O
116 | 30 | N/C(=N\O)NCC(F)(F)C[C@H](N)C(=O)O
3100 | 10 | N=C(N)NCC(F)(F)C[C@H](N)C(=O)O
